Results taken from patent US9351983B2, “Use of glycerophosphoinositols for the treatment of septic shock” (CONSIGLIO NAZIONALE DELLE RICERCHE, priority 2012, dated 2016).

Tests used:
TNFα = test: ELISA of TNFα in medium of LPS-stimulated monocytes; assay type: cell-based, human; conditions: 300 μM
Method: FIG. 5—The inhibitory effects of GroPIns are also evident at the protein expression level. Purified monocytes (4×10^3 cells/sample) were pre-incubated for 20 min at 37° C. in the absence and presence of 300 μM GroPIns, and then for a further 5 h and 24 h without or with 0.1 μg/ml LPS from E. coli. At the end of this incubation, the levels of TNFα, IL-1β and TxB-2 in the medium were assessed by ELISA. In monocytes alone, the protein concentrations were under the assay detection limits at both the times. The data are representative of three independent experiments performed with cells from different donors. Exposure of monocytes to LPS induced a time-dependent increase in the […] levels of all of the cytokines analysed.
Cellular levels of TNFα, IL-1β and TxB-2 were quantified by enzyme-linked immunosorbent assay (ELISA). Conditioned medium from monocytes was sedimented by centrifugation at 300×g at room temperature for 10 min to eliminate cellular debris. Then, the supernatant was recovered and the concentrations of TNFα, IL-1β and TxB-2 were assessed by ELISA, as specified by the manufacturers (Amersham Pharmacia Biotech (NJ, USA).

[1] = tested on: interleukin 1β (IL-1β) gene expression; test: In vitro model of human inflammation: real-time PCR of IL-1β; assay type: cell-based; conditions: 300 μM; 4 h, 14 h, 24 h, 48 h; effect mainly at 4 h and 14 h; one donor, preliminary
Method: (§1) FIG. 15—Glycerophosphoinositol modulates the kinetic transcriptional profile of genes involved in the regulation of inflammatory response. Human monocytes were purified from one donor and treated according to the in vitro model of human inflammation, previously described, in absence (blue line) or in presence (red line) of 300 μM glycerophosphoinositol. In detail glycerophosphoinositol was added to cells in culture 20 minutes before LPS, IL-10 and TGF-β, that is, again after each wash. Samples were collected at time 4 h, 14 h, 24 h, 48 h; freshly isolated monocytes have been considered as control at time 0 h. Total RNA was extracted from cells by RNeasy kit (Qiagen) and reverse-transcribed to cDNA (QuantiTect Reverse Transcription kit, Qiagen). […] Each sample was measured in triplicate and data were analyzed with Pfaffl methods for comparing relative expression data. The measurement of mRNA expression was expressed as fold-increase over control (time 0 h). […]
(§2) Total RNA was extracted with RNeasy kit (Qiagen) according to the manufacturer's instructions. Both integrity and quality of total RNA were checked by agarose gel electrophoresis and the concentration of each RNA sample was assessed spectrophotometrically. Total RNAs were reverse-transcribed to cDNA (QuantiTect Reverse Transcription kit, Qiagen) with oligo-dT and random primers, according to manufacturer's protocol. […]

[2] = tested on: cyclooxygenase 2 (COX-2) gene expression; test: In vitro model of human inflammation: real-time PCR of COX-2; assay type: cell-based; conditions: 300 μM; 4 h, 14 h, 24 h, 48 h; effect mainly at 4 h and 14 h; one donor, preliminary
Method: as §1, §2

[3] = tested on: Interleukin-1 receptor α (IL-1Rα) gene expression; test: In vitro model of human inflammation: real-time PCR of IL-1Rα; assay type: cell-based; conditions: 300 μM; 4 h, 14 h, 24 h, 48 h; one donor, preliminary
Method: as §1, §2

[4] = tested on: interleukin-1 receptor II (IL-1RII) gene expression; test: In vitro model of human inflammation: real-time PCR of IL-1RII; assay type: cell-based; conditions: 300 μM; 4 h, 14 h, 24 h, 48 h; one donor, preliminary
Method: as §1, §2

Interleukin 1β (IL-1β) = test: In vitro model of human inflammation: ELISA of IL-1β in supernatants; assay type: cell-based; conditions: 300 μM; full inflammation (4 h and 14 h); one donor
Method: (§3) FIG. 16—Glycerophosphoinositol inhibits the release of cytokines. Human monocytes were purified from one donor and treated according to the in vitro model of human inflammation, previously described, in absence (blue line) or in presence (red line) of 300 μM glycerophosphoinositol. In detail, glycerophosphoinositol was added to cultured cells 20 minutes before LPS, IL-10 and TGF-β, that is, again after each wash. The growth medium was collected at time 4 h, 14 h, 24 h, 48 h; growth medium from freshly isolated monocytes was considered as control at time 0 h. The levels of cytokines Interleukin 1β (IL-1β), Tumor necrosis factor α (TNFα) and Interleukin-6 (IL-6) in the supernatants were measured by enzyme-linked immunosorbent assay (ELISA kit, R&D System) according to manufacturer's protocol. An increased release of these cytokines was observed during the full inflammation (time 4 h and 14 h) as expected. […]
(§4) Extracellular levels of IL-1β, TNFα and IL-6 were measured by enzyme-linked immunosorbent assay (ELISA) from R&D System. […] Then the recovered supernatants were loaded onto plates according to manufacturer's protocol and the concentration of the protein was assessed spectrophotometrically.

[5] = tested on: Tumor necrosis factor α (TNFα); test: In vitro model of human inflammation: ELISA of TNFα in supernatants; assay type: cell-based; conditions: 300 μM; full inflammation (4 h and 14 h); one donor
Method: as §3, §4

Interleukin-6 (IL-6) = test: In vitro model of human inflammation: ELISA of IL-6 in supernatants; assay type: cell-based; conditions: 300 μM; full inflammation (4 h and 14 h); one donor
Method: as §3, §4

## O=P(O)(OCC(O)CO)OC1C(O)C(O)C(O)C(O)C1O (stereo not drawn) [GroPIns, glycerophosphoinositol]
TNFα; 0.1 μg/ml LPS for 5 h
  level of TNFα in the medium: very small effects
TNFα; 0.1 μg/ml LPS for 24 h
  level of TNFα in the medium: significantly reduced
[1]
  IL-1β mRNA expression: hampered the expression
[2]
  COX-2 mRNA expression: hampered the expression
[3]
  IL-1Rα mRNA expression: favoured the expression
[4]
  IL-1RII mRNA expression: favoured the expression
Interleukin 1β (IL-1β)
  amount of IL-1β in the supernatants: significantly reduced the amount of these cytokines in the supernatants
[5]
  amount of TNFα in the supernatants: significantly reduced the amount of these cytokines in the supernatants
Interleukin-6 (IL-6)
  amount of IL-6 in the supernatants: significantly reduced the amount of these cytokines in the supernatants
